Like-named read-outs stand apart in the source and are kept apart here.
How the values were obtained:
Experiment in all cases: 96-well microtiter plate assay, fungal growth inhibition
C. fragariae = type: cell-based, Colletotrichum fragariae; conditions: for inhibition at 0.3 µM / inhibition at 3 µM / inhibition at 30 µM: Colletotrichum fragariae, read-out: Percent inhibition−Percent Stimulation±SEM; for Percent inhibition−Percent Stimulation±SEM: C. fragariae
From the text: (§1) Pathogen production. Isolates of Colletotrichum acutatum Simmonds, Colletotrichum fragariae Brooks, and Colletotrichum gloeosporioides (Penz.) Penz. & Sacc. in Penz. were obtained from B. J. Smith, USDA, ARS, Small Fruit Research Station, Poplarville, Miss. Colletotrichum fragariae (isolate CF63), C. acutatum (isolate CAGoff), and C. gloeosporioides (isolate CG162) were used for all pathogen and bioautography studies. Isolate CF63 is one of the most virulent isolates at infecting strawberry plants and inducing both crown and fruit rot (Smith and Black, 1990). CF63, CAGoff, and CG162 were used as standard test isolates because of our extensive knowledge of these isolates and their known fungicide sensitivity profiles in both bioautography and microtiter formats. The three Colletotrichum species were isolated from strawberry (Fragaria x ananassa Duchesne). Botrytis cinerea Pers.: Fr, was isolated from commercial grape (Vitis vinifera L.) and Fusarium oxysporum Schlechtend: Fr from orchid (Cynoches sp.). Phomopsis viticola (Sacc.) and P. obscurans (Ellis & Everh.) Sutton were from Mike A. Ellis, Ohio State University, Wooster, Ohio. Fungi were grown on potato-dextrose agar (PDA, Difco, Detroit, Mich.) in 9 cm petri dishes and incubated in a growth chamber at 24±2° C. and under cool-white fluorescent lights ([…]·m^−2·sec^−1 light) with 12 hour photoperiod.
(§2) Inoculum preparation. Conidia were harvested from 7-10 day-old cultures by flooding plates with 5 mL of sterile distilled water and dislodging conidia by softly brushing the colonies with an L-shaped glass rod. Conidial suspensions were filtered through sterile miracloth (Calbiochem-Novabiochem Corp., La Jolla, Calif.) to remove mycelia. Conidia concentrations were determined photometrically, from a standard curve based on the percent of transmittance (% T) at 625 nm and suspensions were then adjusted with sterile distilled water to a concentration of 1.0×10^6 conidia/mL.
(§3) Microtiter assay. A standardized 96-well microtiter plate assay developed for discovery of natural product fungicidal agents was used to evaluate naturally occurring antifungal agents from Macaranga monanara. A 96-well microtiter assay was used to determine sensitivity of B. cinerea, C. acutatum, C. fragariae, C. gloeosporioides, F. oxysporum, Phomopsis viticola, and P. obscurans to the various antifungal agents in comparison with known fungicidal standards. Vinclozolin, captan, and thiabendazole, which represent three different modes of action, were used as standards in this experiment. Each fungus was challenged in a dose-response format using test compounds where the final treatment concentrations were 0.3, 3.0 and 30.0 μM. Microtiter plates (Nunc MicroWell, untreated; Roskilde, Denmark) were covered with a plastic lid and incubated in a growth chamber as described previously for fungal growth. Growth was then evaluated by measuring absorbance of each well at 620 nm using a microplate photometer (Packard Spectra Count, Packard Instrument Co., Downers Grove, Ill.). Microtiter plates (Nunc MicroWell, untreated; Roskilde, Denmark) were covered with a plastic lid and incubated in a growth chamber at 24±1° C. and 12 hour photoperiod under 60±5 μmol light. Growth was then evaluated by measuring absorbance of each well at 620 nm using a microplate photometer (Packard Spectra Count, Packard Instrument Co., Downers Grove, Ill.).
(§4) Microbioassy Experimental Design. Chemical sensitivity each of B. cinerea, C. acutatum, C. fragariae, C. gloeosporiodes, F. oxysporum, Phomopsis viticola, and P. obscurans was evaluated using 96-well plate microbioassay format. Each chemical was evaluated in duplicate at each dose (0.3, 3.0 and 30.0 μM). […]

C. gloeosporioides = type: cell-based, Colletotrichum gloeosporioides; conditions: for inhibition at 0.3 µM / inhibition at 3 µM / inhibition at 30 µM: Colletotrichum gloeosporioides, read-out: Percent inhibition−Percent Stimulation±SEM; for Percent inhibition−Percent Stimulation±SEM: C. gloeosporioides
From the text: as §1, §2, §3, §4

F. oxysporum = type: cell-based, Fusarium oxysporum; conditions: for inhibition at 0.3 µM / inhibition at 3 µM / inhibition at 30 µM: Fusarium oxysporum, read-out: Percent inhibition−Percent Stimulation±SEM; for Percent inhibition−Percent Stimulation±SEM: F. oxysporum
From the text: as §1, §2, §3, §4

C. acutatum = type: cell-based, Colletotrichum acutatum; conditions: for inhibition at 0.3 µM / inhibition at 3 µM / inhibition at 30 µM: Colletotrichum acutatum, read-out: Percent inhibition−Percent Stimulation±SEM; for Percent inhibition−Percent Stimulation±SEM: C. acutatum
From the text: as §1, §2, §3, §4

B. cinerea = type: cell-based, Botrytis cinerea; conditions: for inhibition at 0.3 µM / inhibition at 3 µM / inhibition at 30 µM: Botrytis cinerea, read-out: Percent inhibition−Percent Stimulation±SEM; for Percent inhibition−Percent Stimulation±SEM: B. cinerea
From the text: as §1, §2, §3, §4

CC1(C(=O)Nc2ccc(O)c(Cl)c2Cl)CCCCC1 [Fenhexamid]
inhibition at 0.3 µM (C. fragariae; 48 h): -30.2 ± 10% | inhibition at 3 µM (C. fragariae; 48 h): -13.6 ± 6.3% | inhibition at 30 µM (C. fragariae; 48 h): 19.9 ± 3.4% | inhibition at 0.3 µM (C. fragariae; 72 h): -12 ± 6.7% | inhibition at 3 µM (C. fragariae; 72 h): -9.9 ± 4.3% | inhibition at 30 µM (C. fragariae; 72 h): 19.5 ± 5.4% | inhibition at 0.3 µM (C. gloeosporioides; 48 h): -21.6 ± 9% | inhibition at 3 µM (C. gloeosporioides; 48 h): -32.5 ± 6.4% | inhibition at 30 µM (C. gloeosporioides; 48 h): -0.3 ± 3% | inhibition at 0.3 µM (C. gloeosporioides; 72 h): -11.3 ± 5.5% | inhibition at 3 µM (C. gloeosporioides; 72 h): -16 ± 2% | inhibition at 30 µM (C. gloeosporioides; 72 h): 6.5 ± 4.2% | inhibition at 0.3 µM (F. oxysporum; 48 h): 3 ± 4.4% | inhibition at 3 µM (F. oxysporum; 48 h): 15.3 ± 1.7% | inhibition at 30 µM (F. oxysporum; 48 h): 28.5 ± 1.3% | inhibition at 0.3 µM (F. oxysporum; 72 h): -0.1 ± 2.8% | inhibition at 3 µM (F. oxysporum; 72 h): 3.7 ± 2.6% | inhibition at 30 µM (F. oxysporum; 72 h): 21.2 ± 2.1% | inhibition at 0.3 µM (C. acutatum; 48 h): -21.6 ± 6.7% | inhibition at 3 µM (C. acutatum; 48 h): -6.5 ± 4.9% | inhibition at 30 µM (C. acutatum; 48 h): 13.8 ± 5.3% | inhibition at 0.3 µM (C. acutatum; 72 h): -20.4 ± 5.6% | inhibition at 3 µM (C. acutatum; 72 h): -21.8 ± 4.3% | inhibition at 30 µM (C. acutatum; 72 h): 1.5 ± 6.7% | inhibition at 0.3 µM (B. cinerea; 48 h): 82.9 ± 31.5% | inhibition at 3 µM (B. cinerea; 48 h): 34.2 ± 29.1% | inhibition at 30 µM (B. cinerea; 48 h): 49.2 ± 32.1% | inhibition at 0.3 µM (B. cinerea; 72 h): 71.4 ± 24.7% | inhibition at 3 µM (B. cinerea; 72 h): 42.7 ± 20.6% | inhibition at 30 µM (B. cinerea; 72 h): 40.9 ± 22.6%

CO/N=C(/C(=O)OC)c1ccccc1COc1ccccc1C [BAS 490]
Percent inhibition−Percent Stimulation±SEM (C. fragariae; 0.3 μM, 48 hrs): −68.8 ± 7.1% | Percent inhibition−Percent Stimulation±SEM (C. fragariae; 0.3 μM, 72 hrs): −35.6 ± 5.6% | Percent inhibition−Percent Stimulation±SEM (C. fragariae; 3.0 μM, 48 hrs): −86.4 ± 3.5% | Percent inhibition−Percent Stimulation±SEM (C. fragariae; 3.0 μM, 72 hrs): −71.9 ± 3.5% | Percent inhibition−Percent Stimulation±SEM (C. fragariae; 30 μM, 48 hrs): −91.5 ± 1.7% | Percent inhibition−Percent Stimulation±SEM (C. fragariae; 30 μM, 72 hrs): −80.4 ± 1.4% | Percent inhibition−Percent Stimulation±SEM (C. gloeosporioides; 0.3 μM, 48 hrs): −83.3 ± 3.2% | Percent inhibition−Percent Stimulation±SEM (C. gloeosporioides; 0.3 μM, 72 hrs): −58.7 ± 5.0% | Percent inhibition−Percent Stimulation±SEM (C. gloeosporioides; 3.0 μM, 48 hrs): −92.4 ± 1.5% | Percent inhibition−Percent Stimulation±SEM (C. gloeosporioides; 3.0 μM, 72 hrs): −82.6 ± 3.4% | Percent inhibition−Percent Stimulation±SEM (C. gloeosporioides; 30 μM, 48 hrs): −97.5 ± 1.0% | Percent inhibition−Percent Stimulation±SEM (C. gloeosporioides; 30 μM, 72 hrs): −89.7 ± 1.9% | Percent inhibition−Percent Stimulation±SEM (F. oxysporum; 0.3 μM, 48 hrs): −82.3 ± 3.0% | Percent inhibition−Percent Stimulation±SEM (F. oxysporum; 0.3 μM, 72 hrs): −30.3 ± 6.9% | Percent inhibition−Percent Stimulation±SEM (F. oxysporum; 3.0 μM, 48 hrs): −92.7 ± 0.6% | Percent inhibition−Percent Stimulation±SEM (F. oxysporum; 3.0 μM, 72 hrs): −65.5 ± 1.6% | Percent inhibition−Percent Stimulation±SEM (F. oxysporum; 30 μM, 48 hrs): −94.7 ± 0.5% | Percent inhibition−Percent Stimulation±SEM (F. oxysporum; 30 μM, 72 hrs): −69.5 ± 2.0% | Percent inhibition−Percent Stimulation±SEM (C. acutatum; 0.3 μM, 48 hrs): −63.9 ± 3.8% | Percent inhibition−Percent Stimulation±SEM (C. acutatum; 0.3 μM, 72 hrs): −17.8 ± 3.5% | Percent inhibition−Percent Stimulation±SEM (C. acutatum; 3.0 μM, 48 hrs): −93.1 ± 0.6% | Percent inhibition−Percent Stimulation±SEM (C. acutatum; 3.0 μM, 72 hrs): 14.7 ± 2.5% | Percent inhibition−Percent Stimulation±SEM (C. acutatum; 30 μM, 48 hrs): −95.1 ± 0.7% | Percent inhibition−Percent Stimulation±SEM (C. acutatum; 30 μM, 72 hrs): −69.9 ± 2.6% | Percent inhibition−Percent Stimulation±SEM (B. cinerea; 0.3 μM, 48 hrs): −71.3 ± 28.0% | Percent inhibition−Percent Stimulation±SEM (B. cinerea; 0.3 μM, 72 hrs): −66.6 ± 21.5% | Percent inhibition−Percent Stimulation±SEM (B. cinerea; 3.0 μM, 48 hrs): −24.0 ± 32.0% | Percent inhibition−Percent Stimulation±SEM (B. cinerea; 3.0 μM, 72 hrs): −37.2 ± 20.2% | Percent inhibition−Percent Stimulation±SEM (B. cinerea; 30 μM, 48 hrs): −60.1 ± 32.9% | Percent inhibition−Percent Stimulation±SEM (B. cinerea; 30 μM, 72 hrs): −40.9 ± 17.6%

O=C1c2ccccc2-c2nccc3c(Br)cnc1c23 [4-bromosampangine]
Percent inhibition−Percent Stimulation±SEM (C. fragariae; 0.3 μM, 48 hrs): −46.3 ± 5.0% | Percent inhibition−Percent Stimulation±SEM (C. fragariae; 0.3 μM, 72 hrs): −15.2 ± 8.2% | Percent inhibition−Percent Stimulation±SEM (C. fragariae; 3.0 μM, 48 hrs): −87.3 ± 2.0% | Percent inhibition−Percent Stimulation±SEM (C. fragariae; 3.0 μM, 72 hrs): −45.8 ± 5.6% | Percent inhibition−Percent Stimulation±SEM (C. fragariae; 30 μM, 48 hrs): −55.9 ± 7.1% | Percent inhibition−Percent Stimulation±SEM (C. fragariae; 30 μM, 72 hrs): −26.7 ± 7.3% | Percent inhibition−Percent Stimulation±SEM (C. gloeosporioides; 0.3 μM, 48 hrs): −100.0 ± 1.5% | Percent inhibition−Percent Stimulation±SEM (C. gloeosporioides; 0.3 μM, 72 hrs): −99.0 ± 0.6% | Percent inhibition−Percent Stimulation±SEM (C. gloeosporioides; 3.0 μM, 48 hrs): −98.9 ± 0.5% | Percent inhibition−Percent Stimulation±SEM (C. gloeosporioides; 3.0 μM, 72 hrs): −99.1 ± 0.4% | Percent inhibition−Percent Stimulation±SEM (C. gloeosporioides; 30 μM, 48 hrs): −96.0 ± 1.4% | Percent inhibition−Percent Stimulation±SEM (C. gloeosporioides; 30 μM, 72 hrs): −99.7 ± 0.4% | Percent inhibition−Percent Stimulation±SEM (F. oxysporum; 0.3 μM, 48 hrs): −20.4 ± 4.6% | Percent inhibition−Percent Stimulation±SEM (F. oxysporum; 0.3 μM, 72 hrs): −2.8 ± 1.9% | Percent inhibition−Percent Stimulation±SEM (F. oxysporum; 3.0 μM, 48 hrs): −42.3 ± 4.5% | Percent inhibition−Percent Stimulation±SEM (F. oxysporum; 3.0 μM, 72 hrs): −14.0 ± 2.1% | Percent inhibition−Percent Stimulation±SEM (F. oxysporum; 30 μM, 48 hrs): −25.8 ± 2.6% | Percent inhibition−Percent Stimulation±SEM (F. oxysporum; 30 μM, 72 hrs): −9.1 ± 3.0% | Percent inhibition−Percent Stimulation±SEM (C. acutatum; 0.3 μM, 48 hrs): −23.3 ± 8.0% | Percent inhibition−Percent Stimulation±SEM (C. acutatum; 0.3 μM, 72 hrs): −7.1 ± 6.3% | Percent inhibition−Percent Stimulation±SEM (C. acutatum; 3.0 μM, 48 hrs): −73.4 ± 6.8% | Percent inhibition−Percent Stimulation±SEM (C. acutatum; 3.0 μM, 72 hrs): −24.9 ± 8.7% | Percent inhibition−Percent Stimulation±SEM (C. acutatum; 30 μM, 48 hrs): −33.4 ± 6.9% | Percent inhibition−Percent Stimulation±SEM (C. acutatum; 30 μM, 72 hrs): −10.5 ± 6.7% | Percent inhibition−Percent Stimulation±SEM (B. cinerea; 0.3 μM, 48 hrs): −41.1 ± 9.4% | Percent inhibition−Percent Stimulation±SEM (B. cinerea; 0.3 μM, 72 hrs): −22.6 ± 13.7% | Percent inhibition−Percent Stimulation±SEM (B. cinerea; 3.0 μM, 48 hrs): −59.2 ± 6.7% | Percent inhibition−Percent Stimulation±SEM (B. cinerea; 3.0 μM, 72 hrs): −38.8 ± 9.4% | Percent inhibition−Percent Stimulation±SEM (B. cinerea; 30 μM, 48 hrs): −29.7 ± 9.7% | Percent inhibition−Percent Stimulation±SEM (B. cinerea; 30 μM, 72 hrs): 2.5 ± 8.9%

Source: patent US6844353B2, “Fungicidal properties of sampangine and its analogs to agriculturally important fungal plant pathogens” (The United States of America as represented by the …, priority 2003, dated 2005)
